# Laboratory results reported in patent publication US11377441B2, “Covalent inhibitors of KRAS” (Araxes Pharma LLC, priority 2017, dated 2022).
# Molecular target: T1, KRAS G12C 1-169, his-tagged protein, GDP-loaded (Homo sapiens, UniProt P01116, G12C)
# T1 construct: KRAS G12C 1-169, his-tagged protein, GDP-loaded
# Assay: Biochemical assay: covalent modification of KRAS G12C measured by mass spectrometry (RapidFire/TOF or Q-Exactive)
# Format: binding
# Details: covalent binding to (modification of) KRAS G12C after a ten minute incubation period
# How it was run: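 GDP-loaded KRAS G12C 1-169 (his-tagged) at 2 μM or 0.5 μM in 20 mM Hepes, 150 mM NaCl, 1 mM MgCl2, incubated with compound at 100, 30 or 10 μM at room temperature for 10 min, 30 min, 2 h or 24 h, then quenched with formic acid. Intact-protein LC-MS, deconvolved; percent modification from modified versus unmodified protein.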
row,Structure (SMILES),Binding %
1,"C=CC(=O)N1C[C@H](C)N(c2nc(N3CC(N(C)C)C3)nc3c(F)c(-c4c(C)ccc5[nH]nc(C6CC6)c45)c(Cl)cc23)C[C@H]1C (atropisomer, axis not shown) [Compound 75, 1-((2R,5S)-4-((S)-6-chloro-7-(3-cyclopropyl-5-methyl-1H-indazol-4-yl)-2-(3-(dimethylamino)azetidin-1-yl)-8-fluoroquinazolin-4-yl)-2,5-dimethylpiperazin-1-yl)prop-2-en-1-one]",+ (+ indicates binding activity greater than 0% and up to 50%)
2,"C=CC(=O)N1CCN(c2nc(N3CC(N(C)C)C3)nc3c(F)c(-c4c(C)ccc5[nH]nc(C6CC6)c45)c(Cl)cc23)C[C@H]1C (atropisomer, axis not shown) [Compound 101, 1-((R)-4-((S)-6-chloro-7-(3-cyclopropyl-5-methyl-1H-indazol-4-yl)-2-(3-(dimethylamino)azetidin-1-yl)-8-fluoroquinazolin-4-yl)-2-methylpiperazin-1-yl)prop-2-en-1-one]",+ (+ indicates binding activity greater than 0% and up to 50%)
3,"C=CC(=O)N1C[C@H](C)N(c2nc(N3CC(C(N)=O)C3)nc3c(F)c(-c4c(C)ccc5cnn(C)c45)c(Cl)cc23)C[C@H]1C [Compound 244, 1-(4-((2S,5R)-4-acryloyl-2,5-dimethylpiperazin-1-yl)-6-chloro-7-(1,6-dimethyl-1H-indazol-7-yl)-8-fluoroquinazolin-2-yl)azetidine-3-carboxamide]",++ (++ indicates binding activity from 50 to 80%)
4,"C=CC(=O)N1CCN(c2nc(N3CC(N(C)C)C3)nc3c(F)c(-c4c(C)ccc5[nH]nc(N)c45)c(Cl)cc23)CC1 (atropisomer, axis not shown) [Compound 38, (S)-1-(4-(7-(3-amino-5-methyl-1H-indazol-4-yl)-6-chloro-2-(3-(dimethylamino)azetidin-1-yl)-8-fluoroquinazolin-4-yl)piperazin-1-yl)prop-2-en-1-one]",+ (+ indicates binding activity greater than 0% and up to 50%)
5,"C=CC(=O)N1C[C@H](C)N(c2nc(OCCN3CC[C@@H](F)C3)nc3c(F)c(-c4c(C)ccc5[nH]nc(N)c45)c(Cl)cc23)C[C@H]1C [Compound 108, 1-((2R,5S)-4-(7-(3-amino-5-methyl-1H-indazol-4-yl)-6-chloro-8-fluoro-2-(2-((R)-3-fluoropyrrolidin-1-yl)ethoxy)quinazolin-4-yl)-2,5-dimethylpiperazin-1-yl)prop-2-en-1-one]",+++ (+++ indicates binding activity greater than 80%)
6,"C=CC(=O)N1C[C@H](C)N(c2nc(NCCCN(C)C)nc3c(F)c(-c4c(C)ccc5onc(N)c45)c(Cl)cc23)C[C@H]1C [Compound 73, 1-((2R,5S)-4-(7-(3-amino-5-methylbenzo[d]isoxa-zol-4-yl)-6-chloro-2-(3-(dimethylamino)propyl-amino)-8-fluoroquinazolin-4-yl)-2,5-dimethylpiperazin-1-yl)prop-2-en-1-one]",+ (+ indicates binding activity greater than 0% and up to 50%)
7,"C=CC(=O)N1C[C@H](C)N(c2nc(N3CC(NC)C3)nc3c(F)c(-c4c(C)ccc5cnn(C)c45)c(Cl)cc23)C[C@H]1C (atropisomer, axis not shown) [Compound 139, 1-((2R,5S)-4-((S)-6-chloro-7-(1,6-dimethyl-1H-indazol-7-yl)-8-fluoro-2-(3-(methylamino)azetidin-1-yl)quinazolin-4-yl)-2,5-dimethylpiperazin-1-yl)prop-2-en-1-one]",+ (+ indicates binding activity greater than 0% and up to 50%)
8,"C=CC(=O)N1C[C@H](C)N(c2nc(N3CC(N(C)C)C3)nc3c(F)c(-c4cccc5ncccc45)c(Cl)cc23)C[C@H]1C [Compound 44, 1-((2R,5S)-4-(6-chloro-2-(3-(dimethylamino)azetidin-1-yl)-8-fluoro-7-(quinolin-5-yl)quinazolin-4-yl)-2,5-dimethylpiperazin-1-yl)prop-2-en-1-one]",++ (++ indicates binding activity from 50 to 80%)
